Assay results as given in patent publication US4059622A, “Alkanolamine derivatives” (Imperial Chemical Industries Limited, priority 1970, dated 1977).
Where two headings read alike, the source gives them in different places.

Molecular target: T1, cardiac β-receptors (Felis catus, UniProt Q9TST6)
T1 construct: bodyweight of isoprenaline into a chloralose-anaesthetised cat; from tissue; host or cells: heart of the living chloralose-anaesthetised cat (in vivo)
Assay: inhibition of the tachycardia produced by injection of 0.2 μg/kg isoprenaline into a chloralose-anaesthetised cat (β-adrenergic blocking activity)
Type: in vivo
Protocol: The comparison of the β-adrenergic blocking activity of compounds of the present invention with those of the said prior specification may be carried out using a test standard in the art, namely the inhibition of the tachycardia produced by the injection of 0.2 μg. per kg. bodyweight of isoprenaline into a chloralose-anaesthetised cat.

[1] = ortho-substituted compounds of the invention, chloralose-anaesthetised cat, isoprenaline 0.2 μg/kg, read-out: ED50, Compound B
[2] = para-substituted prior-art compounds, chloralose-anaesthetised cat, isoprenaline 0.2 μg/kg, read-out: ED50, Compound A
[3] = inhibition of tachycardia by 0.2 μg/kg isoprenaline, chloralose-anaesthetised cat, per kg bodyweight, read-out: 50% inhibitory dose (ED50), β-adrenergic blocking activity
[4] = other highly active compounds of the invention, chloralose-anaesthetised cat, isoprenaline 0.2 μg/kg, read-out: ED50

T1 sequence (Q9TST6 whole entry): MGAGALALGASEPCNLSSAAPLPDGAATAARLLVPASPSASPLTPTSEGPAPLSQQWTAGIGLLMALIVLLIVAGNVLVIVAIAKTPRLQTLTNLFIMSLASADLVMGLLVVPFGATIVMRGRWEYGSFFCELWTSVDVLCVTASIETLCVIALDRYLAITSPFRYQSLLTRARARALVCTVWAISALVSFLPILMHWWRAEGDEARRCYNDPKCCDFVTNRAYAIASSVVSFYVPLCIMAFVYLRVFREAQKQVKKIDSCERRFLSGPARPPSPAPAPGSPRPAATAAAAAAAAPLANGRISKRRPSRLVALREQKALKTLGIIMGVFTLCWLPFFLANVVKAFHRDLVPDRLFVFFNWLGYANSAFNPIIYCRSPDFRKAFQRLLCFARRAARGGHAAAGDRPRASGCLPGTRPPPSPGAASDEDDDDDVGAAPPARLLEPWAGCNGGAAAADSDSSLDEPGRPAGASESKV

SMILES: C=CCNC(=O)COc1ccccc1OCC(O)CNC(C)C (stereo not shown) [Compound B, R^1 isopropyl, R^3 allyl, 1-isopropylamino-3-(o-N-allylcarbamoylmethoxyphenoxy)propan-2-ol]
- ED50 [1]: 0.034 mg/kg

SMILES: CC(C)(C)NCC(O)COc1ccc(CC(N)=O)cc1 (stereo not shown) [Compound A, R^1 t-butyl, R^2 H, reference compound]
- ED50 [2]: 0.136 mg/kg

SMILES: CC(C)NCC(O)COc1ccc(CC(N)=O)cc1 (stereo not shown) [Compound A, R^1 isopropyl, R^2 H, reference compound]
- ED50 (cat, read-out: ED50, Compound A): 0.096 mg/kg

SMILES: CCCCNC(=O)COc1ccccc1OCC(O)CNC(C)C (stereo not shown) [Compound B, R^1 isopropyl, R^3 n-butyl]
- ED50 [1]: 0.143 mg/kg

SMILES: CC(C)NCC(O)COc1ccccc1OCC(N)=O (stereo not shown) [Compound B, R^1 isopropyl, R^3 H, 1-isopropylamino-3-(o-carbamoylmethoxyphenoxy)propan-2-ol]
- ED50 [3]: 0.058 mg/kg
- ED50 [1]: 0.058 mg/kg

SMILES: CC(C)NCC(O)COc1ccccc1CC(N)=O (stereo not shown) [1-o-carbamoylmethylphenoxy-3-isopropylaminopropan-2-ol, reference compound]
- ED50 [3]: 0.481 mg/kg

SMILES: CC(C)NCC(O)COc1ccc(CC(=O)NC(C)C)cc1 (stereo not shown) [Compound A, R^1 isopropyl, R^2 isopropyl, reference compound]
- ED50 [2]: 0.225 mg/kg

SMILES: CNC(=O)COc1ccccc1OCC(O)CNC(C)(C)CO (stereo not shown)
- ED50 [4]: 0.03 mg/kg

SMILES: CC(C)NCC(O)COc1ccccc1OCC(=O)NCCO (stereo not drawn) [R^1 isopropyl, R^3 2-hydroxyethyl, 1-o-(N-β-hydroxyethylcarbamoylmethoxy)phenoxy-3-isopropylamino-2-propanol]
- ED50 [4]: 0.009 mg/kg

SMILES: CNC(=O)COc1ccccc1OCC(O)CNC(C)C (stereo not shown) [Compound B, R^1 isopropyl, R^3 methyl, 1-isopropylamino-3-(o-N-methylcarbamoylmethoxyphenoxy)propan-2-ol]
- ED50 [1]: 0.02 mg/kg

SMILES: CCNC(=O)COc1ccccc1OCC(O)CNC(C)C (stereo not shown) [R^1 isopropyl, R^3 ethyl, 1-isopropylamino-3-(o-N-ethylcarbamoylmethoxyphenoxy)propan-2-ol]
- ED50 [4]: 0.068 mg/kg

SMILES: C=CCNC(=O)COc1ccccc1OCC(O)CNC(C)(C)C (stereo not shown) [R^1 t-butyl, R^3 allyl, 1-t-butylamino-3-(o-N-allylcarbamoylmethoxyphenoxy)propan-2-ol]
- ED50 [4]: 0.027 mg/kg

SMILES: CC(C)NCC(O)COc1ccccc1OCC(=O)NC(C)C (stereo not shown) [Compound B, R^1 isopropyl, R^3 isopropyl, 1-isopropylamino-3-(o-N-isopropylcarbamoylmethoxyphenoxy)propan-2-ol]
- ED50 [1]: 0.2 mg/kg

SMILES: C=CCNC(=O)Cc1ccc(OCC(O)CNC(C)C)cc1 (stereo not shown) [Compound A, R^1 isopropyl, R^2 allyl, reference compound]
- ED50 [2]: 1.47 mg/kg

SMILES: CNC(=O)COc1ccccc1OCC(O)CNC(C)(C)C (stereo not shown) [R^1 t-butyl, R^3 methyl, 1-t-butylamino-3-(o-N-methylcarbamoylmethoxyphenoxy)propan-2-ol]
- ED50 [4]: 0.014 mg/kg

SMILES: CC(C)(C)NCC(O)COc1ccccc1OCC(=O)NCCCO (stereo not shown) [R^1 t-butyl, R^3 3-hydroxypropyl, 1-o-(N-γ-hydroxypropylcarbamoyl-methoxy)phenoxy-3-t-butylamino-2-propanol]
- ED50 [4]: 0.074 mg/kg

SMILES: COCCNC(=O)COc1ccccc1OCC(O)CNC(C)C (stereo not drawn) [R^1 isopropyl, R^3 2-methoxyethyl, 1-o-(N-β-methoxyethylcarbamoylmethoxy)phenoxy-3-isopropylamino-2-propanol]
- ED50 [4]: 0.027 mg/kg

SMILES: CC(C)(C)NCC(O)COc1ccccc1OCC(=O)NCCO (stereo not drawn) [R^1 t-butyl, R^3 2-hydroxyethyl, 1-o-(N-β-hydroxyethylcarbamoylmethoxy)phenoxy-3-t-butylaminopropan-2-ol]
- ED50 [4]: 0.04 mg/kg

SMILES: CCCCNC(=O)Cc1ccc(OCC(O)CNC(C)C)cc1 (stereo not shown) [Compound A, R^1 isopropyl, R^2 n-butyl, reference compound]
- ED50 [2]: 0.606 mg/kg

SMILES: CC(=O)Nc1ccc(OCC(O)CNC(C)C)cc1 (stereo not shown) [practolol, reference compound]
- ED50 [3]: ~0.2 mg/kg

SMILES: CC(C)NCC(O)COc1ccccc1OCC(=O)NCCCO (stereo not shown) [R^1 isopropyl, R^3 3-hydroxypropyl, 1-o-(N-γ-hydroxypropylcarbamoylmethoxy)phenoxy-3-isopropylamino-2-propanol]
- ED50 [4]: 0.047 mg/kg

SMILES: CCNC(=O)COc1ccccc1OCC(O)CNC(C)(C)C (stereo not shown) [R^1 t-butyl, R^3 ethyl, 1-t-butylamino-3-(o-N-ethylcarbamoylmethoxyphenoxy)propan-2-ol]
- ED50 [4]: 0.018 mg/kg

SMILES: CNC(=O)Cc1ccc(OCC(O)CNC(C)C)cc1 (stereo not shown) [Compound A, R^1 isopropyl, R^2 methyl, reference compound]
- ED50 [2]: 0.335 mg/kg

SMILES: CC(C)(C)NCC(O)COc1ccccc1OCC(N)=O (stereo not shown) [Compound B, R^1 t-butyl, R^3 H, 1t-butylamino-3-(o-carbamoylmethoxyphenoxy)propan-2-ol]
- ED50 [1]: 0.011 mg/kg
